# Tests used:
# [1] = tested on: egfp-alone; experiment: Western blotting of cell extracts, egfp-alone expression; format: cell-based
# Source text: PolyQ-htt-GFP fusion constructs, in which the polyglutamine region is encoded by CAA and CAG-containing tandem repeats ([…]) [SEQ ID NO: 1], human polyglutaminen, were obtained from the Hereditary Disease Foundation, Santa Monica, Calif., USA. PC12 and HEK293 cells were maintained in MEM supplemented with 10% v/v FBS, switched to Opti-MEM without serum for 6 hrs during transfection using Lipofectamine 2000 (Invitrogen, Carlsbad, Calif., USA), and returned to serum-containing medium thereafter (up to 48 hours). […] Control cultures received equivalent amounts of DMSO-containing vehicle (<0.1% w/v DMSO, final concentration).
# HEK293 or PC12 cells were lysed in PBS buffer containing 1% v/v Triton X-100 and protease inhibitor cocktail (Roche, Indianapolis, Ind.), and passed through a 28 gauge needle to ensure the release of Htt inclusions from the nuclei. Whole mouse brains were homogenized in 50 mM Tris-HCl (pH 7.4), 150 mM NaCl, 1% v/v Triton X-100 and complete protease inhibitor cocktail. Brain homogenate was pre-cleared by centrifuging at 7,500 g for 90 s at 4° C. The supernatant was passed through a 28-gauge needle and boiled in SDS sample buffer for 10 min. Fifty μg of total protein was loaded onto 10% w/v SDS gel containing a 4% w/v stacking gel. […]
# [2] = tested on: Htt exon1-Q103-egfp; experiment: Proteasome inhibitor MG132 treatment of CQ-treated Htt exon1-Q103-egfp-expressing HEK293 cells; format: cell-based; settings: pan-proteasome inhibitor MG132
# Description: HEK293 or PC12 cells were lysed in PBS buffer containing 1% v/v Triton X-100 and protease inhibitor cocktail (Roche, Indianapolis, Ind.), and passed through a 28 gauge needle to ensure the release of Htt inclusions from the nuclei. Whole mouse brains were homogenized in 50 mM Tris-HCl (pH 7.4), 150 mM NaCl, 1% v/v Triton X-100 and complete protease inhibitor cocktail. Brain homogenate was pre-cleared by centrifuging at 7,500 g for 90 s at 4° C. The supernatant was passed through a 28-gauge needle and boiled in SDS sample buffer for 10 min. Fifty μg of total protein was loaded onto 10% w/v SDS gel containing a 4% w/v stacking gel. Monoclonal antibodies anti-polyglutamine (1:2,000), anti-GAPDH (1:10,000), anti-GFP (1:4,000), and anti-Htt (EM48) in 1:1000 dilution were used for immunoblotting. All western blot experiments were performed at least three times and band intensities were averaged.
# In examining potential mechanisms for the effects of CQ on Htt accumulation, we considered the possibilities that CQ might act to inhibit Htt aggregation or directly influence Htt synthesis or degradation. […] Therefore, we focused on the aspects of Htt synthesis and turnover. To determine whether CQ might down-regulate polyQ-Htt expression at the transcriptional level, we examined the amount of Htt^exon1-Q103-egfp mRNA present after 48 hrs of transfection by Northern analysis. […]
# [3] = tested on: R6/2 mice; experiment: Foot clasping test in R6/2 mice; format: in vivo, mouse; settings: R6/2 mice at 10 weeks
# Description: A colony of transgenic mice strain R6/2 that is heterozygous for htt exon1 (containing 145 CAG repeats) was maintained, with founders originating and available from The Jackson Laboratory (Bar Harbor, Me., USA). Male transgenic R6/2 mice were bred with background strain (B6CBAFI/J) females. Genotyping was done according to Hockly et al, Brain Res Bull 61, 469-479, 2003. CQ in water was orally administered to mice at 30 mg/kg/day starting at 3 weeks of age and continued until the mice were deceased or sacrificed for tissues. Littermate R6/2 mice were gavaged with water vehicle alone. […] Blood glucose levels were determined after at least 8 hrs of fasting in 11-week old mice (n=6 for wild-type, n=4 for vehicle-treated R6/2, n=6 for CQ-treated R6/2 littermates) using a 2300 STAT Plus glucose analyzer (YSI, Yellowsonte, Ohio, USA). Fasting blood insulin levels in animals fasted for 8 hrs were measured using an Ultra Sensitive Rat Insulin ELISA Kit (Crystal Chem, Inc., Downers Grove, Ill., USA) according to manufacturer's instructions.
# Rotarod performance (n≧6 for each treatment group) was assessed as described by Hockly et al., 2003 Supra with the modification that the SDI Rota-Rod (San Diego Instruments, San Diego, Calif.) was set to linearly increase in speed to 40 rpm in 4 min ramp time. […]
# [4] = tested on: Alzheimer's disease; settings: phase II clinical trial; cited from earlier work
smiles,measurement,setting,value
"Oc1c(I)cc(Cl)c2cccnc12 [CQ, 5-chloro-7-iodo-8-hydroxy-quinoline]",inhibition of egfp-alone expression,[1],not observed
same,suppression of exon1-Q103-egfp protein production by CQ under MG132 treatment,[2],not affected
same,average clasping score,"[3]; score of 3 maximum, oral CQ 30 mg/kg/day",1.3
same,reduction of average clasping score,[3]; versus vehicle (2.5),48%
same,CQ toxicity,[4],no significant CQ toxicity
same,effects on Alzheimer's disease,[4],early positive effects
